Measured values published in US10035790B2, “RORγ modulators” (BRISTOL-MYERS SQUIBB COMPANY, priority 2012, dated 2018).

Molecular target: T1, ligand binding domain of human RORγ (A262-S507) (Homo sapiens, UniProt P51449)
T1 construct: made in house; host or cells: E. coli
T1 sequence (P51449 262-507): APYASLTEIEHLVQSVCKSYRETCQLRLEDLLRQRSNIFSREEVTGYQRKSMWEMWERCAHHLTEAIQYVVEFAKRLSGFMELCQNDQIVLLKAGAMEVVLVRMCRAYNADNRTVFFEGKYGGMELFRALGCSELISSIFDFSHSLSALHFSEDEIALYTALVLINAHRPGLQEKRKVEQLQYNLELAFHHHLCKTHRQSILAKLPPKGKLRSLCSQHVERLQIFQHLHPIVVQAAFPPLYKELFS
Assay: General RORγ SPA binding assay (competition with [3H]25-hydroxycholesterol)
Conditions: RORγ SPA binding assay, inhibition of [3H]25-hydroxycholesterol binding; read-out: IC50
How it was run: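 Step one: compound meets 50 nM nickel-purified, His-tagged protein from E. coli for 15 min at room temperature (PBS, 0.5% fatty acid free BSA). Step two: radioligand is added for another 15 min. Step three: SPA beads are added for 30 min before scintillation reading and IC50 fitting.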

IC50 [nM] | SMILES
67.6 | C/C(=N\Oc1ccnc(C(F)(F)F)c1)c1cnc(C)nc1C1CCN(C(=O)Nc2c(F)cccc2F)CC1 [Compound B37, N-(2,6-Difluorophenyl)-4-{2-methyl-5-[(1E)-N-{[2-(trifluoromethyl)pyridin-4-yl]oxy}ethanimidoyl]pyrimidin-4-yl}piperidine-1-carboxamide]
169 | C/C(=N\Oc1cccc(C(F)(F)F)n1)c1cnc(C)nc1C1CCN(C(=O)Nc2c(F)cccc2F)CC1 [Compound B38, N-(2,6-Difluorophenyl)-4-{2-methyl-5-[(1E)-N-{[6-(trifluoromethyl)pyridin-2-yl]oxy}ethanimidoyl]pyrimidin-4-yl}piperidine-1-carboxamide]
93.3 | C/C(=N\Oc1ccnc(C(F)(F)F)n1)c1cnc(C)nc1C1CCN(C(=O)Nc2c(F)cccc2C(F)(F)F)CC1 [Compound B39, N-[2-Fluoro-6-(trifluoromethyl)phenyl]-4-{2-methyl-5-[(1E)-N-{[2-(trifluoromethyl)pyrimidin-4-yl]oxy}ethanimidoyl]pyrimidin-4-yl}piperidine-1-carboxamide]
21.4 | C/C(=N\Oc1cc(Cl)nc(C(F)(F)F)c1)c1cnc(C)nc1C1CCN(C(=O)Nc2c(F)cccc2F)CC1 [Compound B40, 4-{5-[(1E)-N-{[2-chloro-6-(trifluoromethyl)pyridin-4-yl]oxy}ethanimidoyl]-2-methylpyrimidin-4-yl}-N-(2,6-difluorophenyl)piperidine-1-carboxamide]
12.6 | C/C(=N/Oc1cc(Cl)nc(C(F)(F)F)c1)c1cnc(C)nc1C1CCN(C(=O)Nc2c(F)cccc2F)CC1 [Compound B41, 4-{5-[(1Z)—N-{[2-chloro-6-(trifluoromethyl)pyridin-4-yl]oxy}ethanimidoyl]-2-methylpyrimidin-4-yl}-N-(2,6-difluorophenyl)piperidine-1-carboxamide]
151 | C/C(=N\Oc1cc(C)nc(C(F)(F)F)n1)c1cnc(C)nc1C1CCN(C(=O)Nc2c(F)cccc2F)CC1 [Compound B42, N-(2,6-difluorophenyl)-4-{2-methyl-5-[(1E)-N-{[6-methyl-2-(trifluoromethyl)pyrimidin-4-yl]oxy}ethanimidoyl]pyrimidin-4-yl}piperidine-1-carboxamide]
13.5 | C/C(=N\Oc1cccc(C(F)(F)F)c1)c1cnc(C)nc1C1CCN(C(=O)Nc2c(F)cccc2F)CC1 [Compound B43, N-(2,6-Difluorophenyl)-4-{2-methyl-5-[(1E)-N-{[3-(trifluoromethyl)phenyl]oxy}ethanimidoyl]pyrimidin-4-yl}piperidine-1-carboxamide]
84.9 | C/C(=N/Oc1cccc(C(F)(F)F)c1)c1cnc(C)nc1C1CCN(C(=O)Nc2c(F)cccc2F)CC1 [Compound B44, N-(2,6-Difluorophenyl)-4-{2-methyl-5-[(1Z)—N-{[3-(trifluoromethyl)phenyl]oxy}ethanimidoyl]pyrimidin-4-yl}piperidine-1-carboxamide]
8 | C/C(=N\Oc1cccc(C(F)(F)F)c1)c1cnc(C)nc1C1CCN(C(=O)Nc2c(F)cccc2C(F)(F)F)CC1 [Compound B45, N-[2-fluoro-6-(trifluoromethyl)phenyl]-4-{2-methyl-5-[(1E)-N-{[3-(trifluoromethyl)phenyl]oxy}ethanimidoyl]pyrimidin-4-yl}piperidine-1-carboxamide]
106 | Cc1nc(C)c(/C=N/Oc2cccc(C(F)(F)F)c2)c(C2CCN(C(=O)Nc3c(F)cccc3F)CC2)n1 [Compound B46, N-(2,6-Difluorophenyl)-4-{2,6-dimethyl-5-[(E)-({[3-(trifluoromethyl)phenyl]oxy}imino)methyl]pyrimidin-4-yl}piperidine-1-carboxamide]
76.4 | C/C(=N\Oc1cccc(C(F)(F)F)c1)c1cnc(C)nc1C1CCN(C(=O)Nc2c(F)cccc2F)C(C)C1 (stereo not drawn) [Compound B47, N-(2,6-Difluorophenyl)-2-methyl-4-{2-methyl-5-[(1E)-N-{[3-(trifluoromethyl)phenyl]oxy}ethanimidoyl]pyrimidin-4-yl}piperidine-1-carboxamide]
241 | CCC/C(=N\Oc1cccc(C(F)(F)F)c1)c1c(C)nc(C)nc1C1CCN(C(=O)Cc2c(F)cccc2F)CC1 [Compound B48, (1E)-1-(4-{1-[(2,6-difluorophenyl)acetyl]piperidin-4-yl}-2,6-dimethylpyrimidin-5-yl)butan-1-one O-[3-(trifluoromethyl)phenyl]oxime]
1970 | CCC/C(=N/Oc1cccc(C(F)(F)F)c1)c1c(C)nc(C)nc1C1CCN(C(=O)Cc2c(F)cccc2F)CC1 [Compound B49, (1Z)-1-(4-{1-[(2,6-difluorophenyl)acetyl]piperidin-4-yl}-2,6-dimethylpyrimidin-5-yl)butan-1-one O-[3-(trifluoromethyl)phenyl]oxime]
445 | CSc1ncc(/C(C)=N/Oc2cccc(C(F)(F)F)c2)c(C2CCN(C(=O)Nc3c(F)cccc3F)CC2)n1 [Compound B50, N-(2,6-Difluorophenyl)-4-{2-(methylthio)-5-[(1E)-N-{[3-(trifluoromethyl)phenyl]oxy}ethanimidoyl]pyrimidin-4-yl}piperidine-1-carboxamide]
8.6 | C/C(=N\Oc1cccc(C(F)(F)F)c1)c1cnc(N)nc1C1CCN(C(=O)Nc2c(F)cccc2F)CC1 [Compound B51, 4-{2-Amino-5-[(1E)-N-{[3-(trifluoromethyl)phenyl]oxy}ethanimidoyl]pyrimidin-4-yl}-N-(2,6-difluorophenyl)piperidine-1-carboxamide]
35.1 | C/C(=N\Oc1ccnc(C(F)(F)F)c1)c1cnc(N)nc1C1CCN(C(=O)Nc2c(F)cccc2F)CC1 [Compound B53, 4-{2-amino-5-[(1E)-N-{[2-(trifluoromethyl)pyridin-4-yl]oxy}ethanimidoyl]pyrimidin-4-yl}-N-(2,6-difluorophenyl)piperidine-1-carboxamide]
168 | C/C(=N\Oc1ccnc(C(F)(F)F)n1)c1cnc(N)nc1C1CCN(C(=O)Nc2c(F)cccc2F)CC1 [Compound B54, 4-{2-Amino-5-[(1E)-N-{[2-(trifluoromethyl)pyrimidin-4-yl]oxy}ethanimidoyl]pyrimidin-4-yl}-N-(2,6-difluorophenyl)piperidine-1-carboxamide]
5.8 | C/C(=N\Oc1cc(Cl)nc(C(F)(F)F)c1)c1cnc(N)nc1C1CCN(C(=O)Nc2c(F)cccc2F)CC1 [Compound B55, 4-{2-Amino-5-[(1E)-N-{[2-chloro-6-(trifluoromethyl)pyridin-4-yl]oxy}ethanimidoyl]pyrimidin-4-yl}-N-(2,6-difluorophenyl)piperidine-1-carboxamide]
31.8 | C/C(=N\Oc1cc(F)nc(F)c1)c1cnc(N)nc1C1CCN(C(=O)Nc2c(F)cccc2F)CC1 [Compound B56, 4-(2-Amino-5-{(1E)-N-[(2,6-difluoropyridin-4-yl)oxy]ethanimidoyl}pyrimidin-4-yl)-N-(2,6-difluorophenyl)piperidine-1-carboxamide]
92.7 | C/C(=N/Oc1cc(F)nc(F)c1)c1cnc(N)nc1C1CCN(C(=O)Nc2c(F)cccc2F)CC1 [Compound B57, 4-(2-Amino-5-{(1Z)—N-[(2,6-difluoropyridin-4-yl)oxy]ethanimidoyl}pyrimidin-4-yl)-N-(2,6-difluorophenyl)piperidine-1-carboxamide]
4090 | CSc1ncc(/C(C)=N/Oc2ccnc(Cl)c2)c(C2CCN(C(=O)Nc3c(F)cccc3F)CC2)n1 [Compound B58, 4-[5-{(1E)-N-[(2-Chloropyridin-4-yl)oxy]ethanimidoyl}-2-(methylthio)pyrimidin-4-yl]-N-(2,6-difluorophenyl)piperidine-1-carboxamide]
49.1 | C/C(=N\Oc1ccnc(Cl)c1)c1cnc(N)nc1C1CCN(C(=O)Nc2c(F)cccc2F)CC1 [Compound B59, 4-(2-Amino-5-{(1E)-N-[(2-chloropyridin-4-yl)oxy]ethanimidoyl}pyrimidin-4-yl)-N-(2,6-difluorophenyl)piperidine-1-carboxamide]
115 | CCNc1ncc(/C(C)=N/Oc2ccnc(C(F)(F)F)c2)c(C2CCN(C(=O)Nc3c(F)cccc3F)CC2)n1 [Compound B60, N-(2,6-Difluorophenyl)-4-{2-(ethylamino)-5-[(1E)-N-{[2-(trifluoromethyl)pyridin-4-yl]oxy}ethanimidoyl]pyrimidin-4-yl}piperidine-1-carboxamide]
367 | C/C(=N\Oc1ccnc(C(F)(F)F)c1)c1cnc(N(C)C)nc1C1CCN(C(=O)Nc2c(F)cccc2F)CC1 [Compound B61, N-(2,6-Difluorophenyl)-4-{2-(dimethylamino)-5-[(1E)-N-{[2-(trifluoromethyl)pyridin-4-yl]oxy}ethanimidoyl]pyrimidin-4-yl}piperidine-1-carboxamide]
114 | Cc1nc(C)c(-c2nc(-c3cccc(C(F)(F)F)c3)no2)c(C2CCN(C(=O)Cc3c(F)cccc3F)CC2)n1 [Compound C1, 4-{1-[(2,6-Difluorophenyl)acetyl]piperidin-4-yl}-2,6-dimethyl-5-{3-[3-(trifluoromethyl)phenyl]-1,2,4-oxadiazol-5-yl}pyrimidine]
337 | Cc1nc(C)c(-c2nc(-c3ccc(F)cc3)no2)c(C2CCN(C(=O)Cc3c(F)cccc3F)CC2)n1 [Compound C2, 2-(2,6-difluorophenyl)-1-(4-(5-(3-(4-fluorophenyl)-1,2,4-oxadiazol-5-yl)-2,6-dimethylpyrimidin-4-yl)piperidin-1-yl)ethanone]
606 | Cc1nc(C)c(-c2nc(Cc3ccc(F)cc3)no2)c(C2CCN(C(=O)Cc3c(F)cccc3F)CC2)n1 [Compound C3, 2-(2,6-difluorophenyl)-1-(4-(5-(3-(4-fluorobenzyl)-1,2,4-oxadiazol-5-yl)-2,6-dimethylpyrimidin-4-yl)piperidin-1-yl)ethanone]
